Where a name gives a salt, the structure may show the parent alone. Read-outs that look alike come from different tables or passages of the source.
Experiments:
15-lipoxygenase (15-LO) = molecular target: T1, 15-lipoxygenase (15-LO) (Oryctolagus cuniculus, UniProt P12530); assay: 15-LO inhibitory activity (15-LO from rabbit reticulocytes, linoleic acid); type: biochemical; details: 256 μM linoleic acid, 4° C., read-out: Lipoxygenase inhibitory action 50% inhibitory concentration (IC50), 15-LO
T1 construct: 15-LO obtained from rabbit reticulocytes; from tissue; host or cells: rabbit reticulocytes
T1 sequence (P12530 1-663): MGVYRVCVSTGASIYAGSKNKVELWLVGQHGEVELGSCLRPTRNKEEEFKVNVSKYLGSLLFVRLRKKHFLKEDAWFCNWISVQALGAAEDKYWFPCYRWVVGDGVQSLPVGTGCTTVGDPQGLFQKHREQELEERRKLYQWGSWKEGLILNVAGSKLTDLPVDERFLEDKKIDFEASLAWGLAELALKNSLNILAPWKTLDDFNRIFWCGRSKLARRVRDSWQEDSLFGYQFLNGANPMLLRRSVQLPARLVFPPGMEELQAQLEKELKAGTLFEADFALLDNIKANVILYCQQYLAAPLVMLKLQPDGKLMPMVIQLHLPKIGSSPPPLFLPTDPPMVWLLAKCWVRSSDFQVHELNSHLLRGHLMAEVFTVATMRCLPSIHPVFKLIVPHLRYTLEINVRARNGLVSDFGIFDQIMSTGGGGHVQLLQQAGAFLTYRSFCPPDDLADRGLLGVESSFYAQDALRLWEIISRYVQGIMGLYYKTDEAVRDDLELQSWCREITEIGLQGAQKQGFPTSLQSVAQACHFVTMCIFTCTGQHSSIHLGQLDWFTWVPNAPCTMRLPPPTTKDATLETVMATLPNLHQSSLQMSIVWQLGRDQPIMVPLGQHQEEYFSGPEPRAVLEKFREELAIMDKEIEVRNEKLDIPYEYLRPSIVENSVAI
Method: 15-LO inhibitory activity was measured using a variation of the method of Auerbach et al. (Auerbach B. J. et al., Anal. Biochem., 201, 375 to 380, 1992). Namely, after pre-incubating (4° C., 15 minutes) in phosphate buffer (pH 7.4) 15-LO obtained from rabbit reticulocytes and a test compound dissolved in DMSO (final concentration: 1%), 256 μM linoleic acid was added and the resulting solution was additionally incubated (4° C., 10 minutes). The resulting 15-HETE that formed was quantified by spectrophotometry (OD660 nm), and the 50% formation inhibitory concentration (μM) of the test compound with respect to 15-LO was calculated from that value.

[1] = test system: lipid peroxide in homogenates of brain, heart and kidneys; assay: Tissue migration: antioxidative action on lipids ex vivo after intraperitoneal administration; type: in vivo; details: Rattus norvegicus, ip, 0.5 h, male SD rats, 100 mg/kg intraperitoneally, 30 minutes after administration
Method: (§1) The antioxidative action on lipids in vitro of the compounds according to the present invention was evaluated in accordance with the method of Malvy et al. (Malvy C. et al.,) described in Biochemical and Biophysical Research Communications, 1980, vol. 95, pp. 734 to 737,) by measuring the lipid peroxide activity in a rat brain homogenate. Namely, the rat brain was removed followed by the addition of five volumes of an aqueous solution of phosphate buffered saline (pH 7.4) (hereinafter, abbreviated as PBS) to the brain while cooling with water, homogenizing with a Teflon homogenizer, and centrifuging for 20 minutes at 10,000 g to collect the supernatant as a brain homogenate. 500 μM cysteine, 5 μM ferrous sulfate, and 100 mM KCl were added to the resulting brain homogenate followed by incubating for 30 minutes at 37° C. and measuring the malondialdehyde that formed due to decomposition of lipid peroxide using the thiobarbituric acid method. The 50% inhibitory concentrations (hereinafter, abbreviated as IC50) of the compounds according to the present invention were then determined from the measured values.
Tissue migration of the compounds according to the present invention was evaluated by measuring the antioxidative action on lipids ex vivo. A test compound dissolved or suspended in an aqueous physiological saline solution or aqueous physiological saline solution containing 1% polyethylene hardened castor oil (Nikko Chemicals: Nikkol HCO-60) was intraperitoneally administered to male SD rats (age: 6 weeks) (purchased from Japan SLC) in groups of 3 animals each at a dose of 100 mg/kg. The animals were sacrificed by exsanguination by severing the carotid artery 30 minutes after administration followed by removing the brain, heart and kidneys. The lipid peroxide activity of homogenates of each tissue was measured using the method described in Example 4. The inhibition rates of the test compounds in each tissue were determined from the amounts of lipid peroxide formed in a control group (physiological saline dose group) and test compound groups.

[2] = Acute oral toxicity in mice; details: mouse, in vivo; male mice, single oral dose, observed for 7 days
Description: A single dose of the test compounds according to the present invention was orally administered to male mice followed by observing for 7 days to determine the mortality rate. The compound indicated below was used for Control Drug 3.

[3] = test system: 66 kDa protein in rat retina; assay: Inhibitory action on increases in 66 kDa protein in UV-A irradiated rat retina; type: in vivo; details: male Wistar rats, 100 mg/kg p.o. 30 minutes before UV-A (12 mW/cm^2, 30 minutes); retinas 48 hours after irradiation; N = 3
Method: The inhibitory action of the compound according to the present invention on increases in 66 kDa protein in rat retina irradiated with UV light was evaluated. The test compound was dissolved or suspended in 0.1 N aqueous hydrochloric acid solution or 1% polyethylene hardened castor oil (Nikkol HCO-60) and orally administered to male Wistar rats (age: 7-9 weeks) followed 30 minutes later by irradiation of the right eye with UV-A (12 mW/cm^2) for 30 minutes using a UV spot light source. In addition, the left eye was not irradiated and used as a control. The rats were housed in an environment blocked from interior light both during UV-A irradiation and for 2 hours before and after irradiation. The retinas were separated 48 hours after irradiation and 5% homogenates were prepared using the same method as described in Example 4. Changes in retina protein were determined by SDS-polyacrylamide gel electrophoresis in accordance with the method of Lammli (Nature, […], 680 to 685, 1970). […] Subsequently, the gel was decolored with a mixture of ethanol, acetic acid, and water (25:8:65) and the 66 kDa protein following electrophoresis was analyzed by densitrography. The amount of protein in the samples was determined using the Lowry method.

5-lipoxygenase (5-LO) = molecular target: T2, 5-lipoxygenase (5-LO) (Homo sapiens, UniProt P09917); assay: 5-LO inhibitory activity (leucotriene B4 formation in human peripheral blood mononuclear cells, A23187); type: cell-based; details: 30 μM A23187, leucotriene B4, read-out: Lipoxygenase inhibitory action 50% inhibitory concentration (IC50), 5-LO
T2 construct: human peripheral blood mononuclear cells; endogenous in cells; host or cells: human peripheral blood mononuclear cells
T2 sequence (P09917 1-674): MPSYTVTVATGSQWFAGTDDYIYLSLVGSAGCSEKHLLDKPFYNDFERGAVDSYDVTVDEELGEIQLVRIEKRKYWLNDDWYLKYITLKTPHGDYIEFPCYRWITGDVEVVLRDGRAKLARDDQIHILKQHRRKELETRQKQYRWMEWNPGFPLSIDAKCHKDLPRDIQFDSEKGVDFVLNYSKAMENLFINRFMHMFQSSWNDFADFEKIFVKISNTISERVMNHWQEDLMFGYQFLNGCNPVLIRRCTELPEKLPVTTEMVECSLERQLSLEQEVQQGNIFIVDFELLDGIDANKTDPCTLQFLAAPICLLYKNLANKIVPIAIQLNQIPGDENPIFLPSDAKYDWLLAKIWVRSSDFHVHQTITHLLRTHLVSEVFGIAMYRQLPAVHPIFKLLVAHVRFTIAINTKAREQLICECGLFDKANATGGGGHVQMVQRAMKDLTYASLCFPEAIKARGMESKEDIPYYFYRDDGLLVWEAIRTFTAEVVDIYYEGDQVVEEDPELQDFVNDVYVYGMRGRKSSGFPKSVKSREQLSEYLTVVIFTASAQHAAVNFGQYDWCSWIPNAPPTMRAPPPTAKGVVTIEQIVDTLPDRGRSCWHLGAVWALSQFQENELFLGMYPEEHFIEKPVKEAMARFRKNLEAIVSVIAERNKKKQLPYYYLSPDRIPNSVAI
Method: 5-LO inhibitory activity was measured using a variation of the method of Carter et al. (Carter G. W. et al., J. Pharmacol. Exp. Ther., 256, 929 to 937, 1991). Namely, after pre-incubating (37° C., 15 minutes) in Hank's solution human peripheral blood mononuclear cells and a test compound dissolved in DMSO (final concentration: 1%), 30 μM A23187 was added and the resulting solution was additionally incubated (37° C., 30 minutes). The resulting leucotriene B4 that formed was quantified by enzyme immunoassay, and the 50% formation inhibitory concentration (μM) of the test compound with respect to 5-LO was calculated from that value.

[4] = test system: mice administered ferrous chloride into the spinal subarachnoid cavity; assay: Antioxidative action in vivo: abnormal behavior and mortality after ferrous chloride into the spinal subarachnoid cavity; parameters: species or system mouse; details: male Slc:ICR mice, 30 minutes before ferrous chloride, score after 60 minutes
Method: The antioxidative action in vivo of the compounds according to the present invention was evaluated according to the method described in the Journal of Medical Chemistry (J. Med. Chem., 1997, vol. 40, pp. 559 to 573) based on the inhibitory effects on abnormal behavior and mortality rate following administration of ferrous chloride into the spinal subarachnoid cavity of mice. Male Slc:ICR mice (age: 5 weeks) (purchased from Japan SLC) were used in groups of 3 to 7 animals each, and were administered 5 μl of aqueous physiological saline solution containing 50 mM ferrous chloride into the spinal column between the 5th and 6th lumbar vertebra. […] The test compounds were dissolved or suspended in an aqueous physiological saline solution or an aqueous physiological saline solution containing 1% polyethylene hardened castor oil (manufactured by Nikko Chemicals CO., LTD. under the name of NIKKOL HCO-60), and administered intraperitoneally or orally 30 minutes before the administration of ferrous chloride. The 50% inhibitory dose (hereinafter, abbreviated as ID50) of each test compound was determined from the score of a control group (physiological saline treated group) and the score of each test compound treated group.

[5] = test system: lipid peroxides in retina homogenate; assay: Retina migration: formation of lipid peroxides in retina ex vivo after oral administration; parameters: species or system rat; details: male SD rats, retinas removed 30 minutes later, auto-oxidized 1 hour at 37° C.
Method: The retina migration of the compounds according to the present invention was evaluated. The test compounds dissolved or suspended in 0.1 N aqueous hydrochloric acid solution or 1% polyethylene hardened castor oil (Nikkol HCO-60) solution were orally administered to male SD rats (age: 6 weeks) in groups of three animals each followed by removing both eyes 30 minutes later and separating the retinas while cooling with ice. The retinas were homogenized with a Polytron Microhomogenizer (NS-310E: manufactured by Niti-On Medical and Physical Instruments) in 0.1 M Tris-HCl buffer (pH 7.4) while cooling with ice to prepare 5% homogenates. The homogenates were then auto-oxidized for 1 hour at 37° C., and the amounts of lipid peroxide that formed were quantified using the thiobarbituric acid method (Masugi, et al., Vitamin, 51, 21 to 29, 1977).

[6] = test system: lipid peroxide in rat brain homogenate; assay: Antioxidative action on lipids in vitro (lipid peroxide activity in rat brain homogenate, thiobarbituric acid method); type: biochemical; details: 500 μM cysteine, 5 μM ferrous sulfate, 100 mM KCl, 30 minutes at 37° C., malondialdehyde, read-out: 50% inhibitory concentration of anti-lipid peroxide action in vitro (IC50)
Method: as §1

[7] = brain homogenate, read-out: Inhibition rate of ex vivo anti-lipid peroxide action, Brain
[8] = heart homogenate, read-out: Inhibition rate of ex vivo anti-lipid peroxide action, Heart
[9] = kidney homogenate, read-out: Inhibition rate of ex vivo anti-lipid peroxide action, Kidney

| SMILES | IC50 (15-lipoxygenase (15-LO)) | inhibition at 100 mg/kg [1, 7] | inhibition at 100 mg/kg [1, 8] | inhibition at 100 mg/kg [1, 9] | LD50 at 7 days [2] | Ratio of 66 kDa protein in UV-irradiated rat retina (right eye: irradiated/left eye: non-irradiated) [3] | IC50 (5-lipoxygenase (5-LO)) | Antioxidative action in vivo 50% inhibitory dose (ID50), Intraperitoneal administration [4] | Antioxidative action in vivo 50% inhibitory dose (ID50), Oral administration [4] | Inhibitory effect on formation of lipid peroxides in retina ex vivo 30% inhibitory concentration (ID30, oral administration) [5] | IC50 [6] |
| --- | --- | --- | --- | --- | --- | --- | --- | --- | --- | --- | --- |
| Cc1c(C)c2c(c(CN)c1N)CC(C)(C)O2 [Compound No. 1] | 3740 nM | 93% | 81% | 83% | > 1000 mg/kg | 1.45 | > 10000 nM | 1.8 mg/kg | 6 mg/kg | 16 mg/kg | – |
| Cc1c(C)c2c(c(CN)c1N)CCC(C)(C)O2 [Compound No. 2, 2,2,7,8-tetramethyl-5-aminomethyl-6-aminochroman•-dihydrochloride] | – | 98% | 96% | 97% | > 1000 mg/kg | – | – | 2.6 mg/kg | 12 mg/kg | 6.9 mg/kg | 340 nM |
| Cc1c(C)c2c(c(C)c1N)CC(C)(CN1CCC(c3ccccc3)CC1)O2 (centres unmarked) [Control Drug 2, reference compound] | – | – | – | – | < 300 mg/kg | – | > 10000 nM | – | – | – | – |
| Cc1c(C)c2c(c(N)c1N)CC(C)(C)O2 [Control drug 1, reference compound] | – | 94% | 84% | 87% | – | – | – | >30 mg/kg | >30 mg/kg | – | 1400 nM |

— patent publication US7652155B2, “Diamine derivative, production process therefor and antioxidant” (Nippon Soda Co., Ltd., priority 2003, dated 2010)
